Measured values reported in patent US9174994B2, “Enhanced treatment regimens using mTor inhibitors” (INTELLIKINE LLC, priority 2011, dated 2015).

Assay: Phase I clinical trial: treatment-emergent adverse events (patients, n (%)), dose limiting toxicity, MTD
Format: in vivo
Procedure: Safety, maximum tolerated dose (MTD), pharmacokinetics (PK) and preliminary antitumor activity were evaluated.
Pharmacodynamic (PD) endpoints were evaluated in surrogate (peripheral blood cells [PBCs], skin) and tumor tissues for the phosphorylation of TORC1-dependent markers (4EBP1/S6), and TORC2-dependent markers (AKT/PRAS40).

CC(C)n1nc(-c2ccc3oc(N)nc3c2)c2c(N)ncnc21 [compound A]
4 (50%): Asthenia (7 mg/day (N = 8)) | Blood creatinine increased (7 mg/day (N = 8)) | Mucosal inflammation (7 mg/day (N = 8)) | Rash (7 mg/day (N = 8))
3 (38%): Decreased appetite (7 mg/day (N = 8)) | Diarrhoea (7 mg/day (N = 8)) | Dry mouth (7 mg/day (N = 8)) | Nausea (7 mg/day (N = 8)) | Thrombocytopenia (7 mg/day (N = 8)) | Vomiting (7 mg/day (N = 8))
3 (100%): Patients Reporting at Least One Related TEAE (2 mg/day (N = 3)) | Patients Reporting at Least One Related TEAE (6 mg/3 W, QDx3d QW (N = 3))
2 (29%): Fatigue (4 mg/day (N = 7)) | Mucosal inflammation (4 mg/day (N = 7)) | Nausea (4 mg/day (N = 7)) | Pruritus (4 mg/day (N = 7)) | Asthenia (6 mg/day (N = 7)) | Mucosal inflammation (6 mg/day (N = 7))
7 (100%): Patients Reporting at Least One Related TEAE (4 mg/day (N = 7)) | Hyperglycaemia (6 mg/day (N = 7)) | Patients Reporting at Least One Related TEAE (6 mg/day (N = 7))
2 (25%): Anaemia (7 mg/day (N = 8)) | Dehydration (7 mg/day (N = 8)) | Dysgeusia (7 mg/day (N = 8)) | Fatigue (7 mg/day (N = 8)) | Lymphopenia (7 mg/day (N = 8)) | Pruritus (7 mg/day (N = 8))
3 (43%): Dysgeusia (4 mg/day (N = 7)) | Rash (4 mg/day (N = 7)) | Hypercholesterolaemia (6 mg/day (N = 7)) | Nausea (6 mg/day (N = 7)) | Vomiting (6 mg/day (N = 7))
5 (71%): Hyperglycaemia (4 mg/day (N = 7)) | Diarrhoea (6 mg/day (N = 7)) | Pruritus (6 mg/day (N = 7)) | Rash (6 mg/day (N = 7))
2 (67%): Dysgeusia (2 mg/day (N = 3)) | Hyperglycaemia (2 mg/day (N = 3)) | Mucosal inflammation (6 mg/3 W, QDx3d QW (N = 3)) | Nausea (6 mg/3 W, QDx3d QW (N = 3))
0 (0%): Anaemia (2 mg/day (N = 3)) | Asthenia (2 mg/day (N = 3)) | Blood creatinine increased (2 mg/day (N = 3)) | Coagulopathy (2 mg/day (N = 3)) | Confusional state (2 mg/day (N = 3)) | Cough (2 mg/day (N = 3)) | Dehydration (2 mg/day (N = 3)) | Diarrhoea (2 mg/day (N = 3)) | Dizziness (2 mg/day (N = 3)) | Dry skin (2 mg/day (N = 3)) | Dyspnoea (2 mg/day (N = 3)) | Dyspnoea exertional (2 mg/day (N = 3)) | Eye infection (2 mg/day (N = 3)) | Gastritis (2 mg/day (N = 3)) | Gravitational oedema (2 mg/day (N = 3)) | Hypercholesterolaemia (2 mg/day (N = 3)) | Hypocalcaemia (2 mg/day (N = 3)) | Insomnia (2 mg/day (N = 3)) | Lymphopenia (2 mg/day (N = 3)) | Mucosal inflammation (2 mg/day (N = 3)) | Muscle spasms (2 mg/day (N = 3)) | Orthostatic hypotension (2 mg/day (N = 3)) | Panniculitis (2 mg/day (N = 3)) | Polyuria (2 mg/day (N = 3)) | Pruritus (2 mg/day (N = 3)) | Skin discolouration (2 mg/day (N = 3)) | Skin exfoliation (2 mg/day (N = 3)) | Thrombocytopenia (2 mg/day (N = 3)) | Vomiting (2 mg/day (N = 3)) | Weight decreased (2 mg/day (N = 3)) | Anaemia (4 mg/day (N = 7)) | Asthenia (4 mg/day (N = 7)) | Coagulopathy (4 mg/day (N = 7)) | Confusional state (4 mg/day (N = 7)) | Cough (4 mg/day (N = 7)) | Dehydration (4 mg/day (N = 7)) | Diarrhoea (4 mg/day (N = 7)) | Dizziness (4 mg/day (N = 7)) | Dry skin (4 mg/day (N = 7)) | Dyspepsia (4 mg/day (N = 7)) | Dyspnoea (4 mg/day (N = 7)) | Eye infection (4 mg/day (N = 7)) | Gastritis (4 mg/day (N = 7)) | Gravitational oedema (4 mg/day (N = 7)) | Hypocalcaemia (4 mg/day (N = 7)) | Insomnia (4 mg/day (N = 7)) | Muscle spasms (4 mg/day (N = 7)) | Orthostatic hypotension (4 mg/day (N = 7)) | Panniculitis (4 mg/day (N = 7)) | Skin discolouration (4 mg/day (N = 7)) | Skin exfoliation (4 mg/day (N = 7)) | Vomiting (4 mg/day (N = 7)) | Weight decreased (4 mg/day (N = 7)) | Asthenia (6 mg/3 W, QDx3d QW (N = 3)) | Catheter site inflammation (6 mg/3 W, QDx3d QW (N = 3)) | Catheter site pain (6 mg/3 W, QDx3d QW (N = 3)) | Decreased appetite (6 mg/3 W, QDx3d QW (N = 3)) | Diarrhoea (6 mg/3 W, QDx3d QW (N = 3)) | Dry skin (6 mg/3 W, QDx3d QW (N = 3)) | Dysgeusia (6 mg/3 W, QDx3d QW (N = 3)) | Dyspnoea (6 mg/3 W, QDx3d QW (N = 3)) | Fatigue (6 mg/3 W, QDx3d QW (N = 3)) | Headache (6 mg/3 W, QDx3d QW (N = 3)) | Hypercholesterolaemia (6 mg/3 W, QDx3d QW (N = 3)) | Hypertransaminasaemia (6 mg/3 W, QDx3d QW (N = 3)) | Hypertriglyceridaemia (6 mg/3 W, QDx3d QW (N = 3)) | Hypomagnesaemia (6 mg/3 W, QDx3d QW (N = 3)) | Hypotension (6 mg/3 W, QDx3d QW (N = 3)) | Low fever (6 mg/3 W, QDx3d QW (N = 3)) | Lymphopenia (6 mg/3 W, QDx3d QW (N = 3)) | Palmar-plantar erythrodysaesthesia syndrome (6 mg/3 W, QDx3d QW (N = 3)) | Pyrexia (6 mg/3 W, QDx3d QW (N = 3)) | Rash macular (6 mg/3 W, QDx3d QW (N = 3)) | Urinary tract infection (6 mg/3 W, QDx3d QW (N = 3)) | Asthenia (6 mg/3 W, QDx3d QW (N = 3), 2nd Asthenia line) | Anaemia (6 mg/day (N = 7)) | Coagulopathy (6 mg/day (N = 7)) | Confusional state (6 mg/day (N = 7)) | Cough (6 mg/day (N = 7)) | Dehydration (6 mg/day (N = 7)) | Dizziness (6 mg/day (N = 7)) | Dry mouth (6 mg/day (N = 7)) | Dry skin (6 mg/day (N = 7)) | Dyspepsia (6 mg/day (N = 7)) | Dyspnoea (6 mg/day (N = 7)) | Dyspnoea exertional (6 mg/day (N = 7)) | Gastritis (6 mg/day (N = 7)) | Gravitational oedema (6 mg/day (N = 7)) | Hypocalcaemia (6 mg/day (N = 7)) | Lymphopenia (6 mg/day (N = 7)) | Orthostatic hypotension (6 mg/day (N = 7)) | Panniculitis (6 mg/day (N = 7)) | Polyuria (6 mg/day (N = 7)) | Skin discolouration (6 mg/day (N = 7)) | Skin exfoliation (6 mg/day (N = 7)) | Thrombocytopenia (6 mg/day (N = 7)) | Weight decreased (6 mg/day (N = 7)) | Urine tract infection (7 mg/5 W, QDx5d QW (N = 3)) | Vomiting (7 mg/5 W, QDx5d QW (N = 3)) | Nausea (7 mg/5 W, QDx5d QW (N = 3), 1st Nausea line) | Dyspepsia (7 mg/day (N = 8)) | Dyspnoea exertional (7 mg/day (N = 8)) | Eye infection (7 mg/day (N = 8)) | Insomnia (7 mg/day (N = 8)) | Muscle spasms (7 mg/day (N = 8)) | Polyuria (7 mg/day (N = 8)) | ASTHENIA (7 mg/week (N = 3)) | ATHENIA (7 mg/week (N = 3)) | Asthenia (7 mg/week (N = 3)) | Blood creatinine increased (7 mg/week (N = 3)) | Blood triglycerides increased (7 mg/week (N = 3)) | DIARRHEA (7 mg/week (N = 3)) | Decreased appetite (7 mg/week (N = 3)) | Dyspepsia (7 mg/week (N = 3)) | HYPERGLYCEMIA (7 mg/week (N = 3)) | Malaise (7 mg/week (N = 3)) | Mucosal inflammation (7 mg/week (N = 3)) | Muscle spasms (7 mg/week (N = 3))
Rash: Dose limiting toxicity (6 mg QD)
1 (13%): Coagulopathy (7 mg/day (N = 8)) | Confusional state (7 mg/day (N = 8)) | Cough (7 mg/day (N = 8)) | Dizziness (7 mg/day (N = 8)) | Dry skin (7 mg/day (N = 8)) | Dyspnoea (7 mg/day (N = 8)) | Gastritis (7 mg/day (N = 8)) | Gravitational oedema (7 mg/day (N = 8)) | Hypercholesterolaemia (7 mg/day (N = 8)) | Hypocalcaemia (7 mg/day (N = 8)) | Orthostatic hypotension (7 mg/day (N = 8)) | Panniculitis (7 mg/day (N = 8)) | Skin discolouration (7 mg/day (N = 8)) | Skin exfoliation (7 mg/day (N = 8)) | Weight decreased (7 mg/day (N = 8))
1 (14%): Blood creatinine increased (4 mg/day (N = 7)) | Decreased appetite (4 mg/day (N = 7)) | Dry mouth (4 mg/day (N = 7)) | Dyspnoea exertional (4 mg/day (N = 7)) | Hypercholesterolaemia (4 mg/day (N = 7)) | Lymphopenia (4 mg/day (N = 7)) | Polyuria (4 mg/day (N = 7)) | Thrombocytopenia (4 mg/day (N = 7)) | Blood creatinine increased (6 mg/day (N = 7)) | Decreased appetite (6 mg/day (N = 7)) | Dysgeusia (6 mg/day (N = 7)) | Eye infection (6 mg/day (N = 7)) | Fatigue (6 mg/day (N = 7)) | Insomnia (6 mg/day (N = 7)) | Muscle spasms (6 mg/day (N = 7))
1 (33%): Decreased appetite (2 mg/day (N = 3)) | Dry mouth (2 mg/day (N = 3)) | Dyspepsia (2 mg/day (N = 3)) | Fatigue (2 mg/day (N = 3)) | Nausea (2 mg/day (N = 3)) | Rash (2 mg/day (N = 3)) | Alanine aminotransferase increased (6 mg/3 W, QDx3d QW (N = 3)) | Hyperbilirubinaemia (6 mg/3 W, QDx3d QW (N = 3)) | Hyperglycaemia (6 mg/3 W, QDx3d QW (N = 3)) | Platelet count decreased (6 mg/3 W, QDx3d QW (N = 3)) | Pruritus (6 mg/3 W, QDx3d QW (N = 3)) | Rash (6 mg/3 W, QDx3d QW (N = 3)) | Vomiting (6 mg/3 W, QDx3d QW (N = 3)) | Diarrhoea (7 mg/5 W, QDx5d QW (N = 3)) | Patients Reporting at Least One Related TEAE (7 mg/5 W, QDx5d QW (N = 3)) | Rash (7 mg/5 W, QDx5d QW (N = 3)) | Nausea (7 mg/5 W, QDx5d QW (N = 3), 2nd Nausea line) | Alanine aminotransferase increased (7 mg/week (N = 3)) | Aspartate aminotransferase increased (7 mg/week (N = 3)) | Diarrhoea (7 mg/week (N = 3)) | Dysgeusia (7 mg/week (N = 3)) | Hyperglycaemia (7 mg/week (N = 3)) | Lymphopenia (7 mg/week (N = 3)) | Nausea (7 mg/week (N = 3))
8 (100%): Hyperglycaemia (7 mg/day (N = 8)) | Patients Reporting at Least One Related TEAE (7 mg/day (N = 8))
